Assay results as given in patent US20230000063A1, “SYSTEM FOR DETECTING EXTRACELLULAR PURINERGIC RECEPTOR LIGAND, AND NON-HUMAN ANIMAL HAVING THE SYSTEM INTRODUCED THEREINTO” (Chugai Seiyaku Kabushiki Kaisha, priority 2019, published 2023).

Tests used:
human P2Y11 [1] = target: T1, human P2Y11 (Homo sapiens, UniProt Q96G91); assay: In vivo imaging of ATP at known concentration in the double knock-in mouse; conditions: 50 μL of 0, 1, 2, 4 or 8 mM ATP + 15 mg/mL VivoGlo Luciferin subcutaneously, IVIS 10 to 20 minutes after, exposure 60 sec
T1 construct: expressed in transfected cells; host or cells: cells of the P2Y11-split Luc (C-terminal)/Arrestin-split Luc (N-terminal) double knock-in mouse (Rosa26 locus): in vivo, and a skin fibroblast line derived from it
T1 sequence (Q96G91 1-374): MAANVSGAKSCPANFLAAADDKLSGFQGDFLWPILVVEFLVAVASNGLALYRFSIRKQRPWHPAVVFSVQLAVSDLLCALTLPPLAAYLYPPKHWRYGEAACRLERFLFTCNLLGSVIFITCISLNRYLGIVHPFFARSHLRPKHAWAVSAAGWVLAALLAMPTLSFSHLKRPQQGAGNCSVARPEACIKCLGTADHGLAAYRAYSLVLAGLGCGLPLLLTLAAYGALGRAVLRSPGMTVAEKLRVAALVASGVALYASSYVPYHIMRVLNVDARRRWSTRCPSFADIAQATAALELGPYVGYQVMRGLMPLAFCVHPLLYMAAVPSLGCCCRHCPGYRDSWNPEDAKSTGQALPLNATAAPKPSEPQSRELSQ
Method: To a P2Y11-split Luc (C-terminal)/Arrestin-split Luc (N-terminal) double knock-in mouse, 50 μL of a mixture of ATP at a final concentration of 0 mM, 1 mM, 2 mM, 4 mM, or 8 mM and 15 mg/mL VivoGlo Luciferin (Promega #P1043) was subcutaneously administered. A luminescent signal intensity was measured with IVIS Spectrum CT (Perkin Elmer) 10 to 20 minutes after the ATP administration. The measurement was performed under conditions of exposure time of 60 sec, with medium binning, and F/stop of 1, and thus the luminescent signal was analyzed in terms of a physical quantity (photons/sec). […] Thus it was confirmed that the mouse functions as a concentration dependent reporter mouse (FIG. 6 and FIG. 7).

human P2Y11 [2] = assay: Detection of in vivo ATP signal in P2Y11-split Luc (C-terminal)/Arrestin-split Luc (N-terminal) double knock-in mouse; conditions: 50 μL of 1 mM ATP + 15 mg/mL VivoGlo Luciferin subcutaneously, IVIS 10 to 20 minutes after, not detected in single-allele or wild type mice
Method: To a P2Y11-split Luc (C-terminal)/Arrestin-split Luc (N-terminal) double knock-in mouse, 50 μL of a mixture of ATP at a final concentration of 1 mM and 15 mg/mL VivoGlo Luciferin (Promega #P1043) was subcutaneously administered. A luminescent signal intensity was measured with IVIS Spectrum CT (Perkin Elmer) 10 to 20 minutes after the ATP administration. The measurement was performed under conditions of exposure time of 180 sec, with medium binning, and F/stop of 1, and thus the luminescent signal was analyzed in terms of a physical quantity (photons/sec).

human P2Y11 [3] = target: T1, human P2Y11; assay: Detection of in vitro ATP concentration in fibroblasts derived from the double knock-in mouse; format: cell-based; conditions: fibroblast from double knock-in mouse; 0 to 1000 μM ATP + VivoGlo Luciferin; IVIS, exposure 180 sec
Method: A skin tissue was collected from a P2Y11-split Luc (C-terminal)/Arrestin-split Luc (N-terminal) double knock-in mouse, and was sliced with a scalpel in a culture fluid, and the resultant was covered with a cover glass with a dermis side in contact with a bottom of a culture dish, and was cultured in a D-MEM medium supplemented with 10% FBS and 1×NEAA. Fibroblasts confirmed to have migration/growth of cells were collected by a trypsin treatment, and the resultant was repeatedly passaged to establish a fibroblast cell line.
The fibroblast derived from the P2Y-11 split Luc (C-terminal)/Arrestin-split Luc (N-terminal) double knock-in mouse was seeded in a 24-well culture plate. On the next day, ATP at a final concentration of 0 to 1000 μM and VivoGlo Luciferin (Promega #P1043) were added thereto, and a luminescent signal was detected with IVIS Spectrum CT (Perkin Elmer). The measurement was performed under conditions of exposure time of 180 sec, with medium binning, and F/Stop of 1, and thus the luminescent signal was analyzed in terms of a physical quantity (photons/sec).

## Nc1ncnc2c1ncn2[C@@H]1O[C@H](COP(=O)(O)OP(=O)(O)OP(=O)(O)O)[C@@H](O)[C@H]1O [ATP]
Human P2Y11 [1]
  luminescent signal intensity: an ATP concentration-dependent signal intensity was detected
Human P2Y11 [2]
  luminescent signal due to the ATP administration: a luminescent signal due to the ATP administration was detected
Human P2Y11 [3]
  luminescent signal intensity: a concentration-dependent signal intensity was detected
